Data from patent US20240352069A1, “SYNTHETIC PEPTIDE, AND COSMETIC COMPOSITION OR PHARMACEUTICAL COMPOSITION AND APPLICATION THEREOF” (SHENZHEN WINKEY TECHNOLOGY CO., LTD., priority 2021, published 2024).

Experiments:
HaCaT cells [1] = experiment: Cell proliferation experiment (MTT), HaCaT; format: cell-based, human; details: 24 hours
Source text: (§1) Human keratinocytes (HaCaT) were purchased from the Kunming Cell Bank of the Type Culture Collection Committee of the Chinese Academy of Sciences, and mouse skin fibroblasts (NIH3T3) were purchased from the Shanghai Cell Bank of the Type Culture Collection Committee of the Chinese Academy of Sciences.
• a) Take cells in good condition in exponential growth phase, add 0.25% trypsin digestion solution, digest to make adherent cells fall off, count 1-4×10^5 cells/mL, and make cell suspension; • b) Appropriately dilute 2000 cells/well of the cell suspension and inoculate it on a 96-well plate at 200 μL/well, and culture it in a constant temperature CO2 incubator for 24 hours. • c) Change the medium, add the sample to be tested, 20 μL/well, and incubate for 24 hours; • d) Add the MTT reagent into the 96-well plate, 20 μL/well, and react in the incubator for 4 hours; • e) Aspirate the supernatant, add DMSO, 150 μL/well, and shake on a plate shaker for 5 minutes; • f) After 5 minutes, use a microplate reader to read the reference OD values at 490 nm and 630 nm wavelengths, and calculate the cell viability:
MTT method is a method to detect cell survival and growth. The measured OD value is directly proportional to cell activity. The larger the OD value, the higher the cell activity.

HaCaT cells [2] = experiment: UVB light damage repair experiment (MTT), HaCaT; format: cell-based, human; details: UVB irradiated, 12.5-100 ppm, 24 hours
Experimental: as §1
(§2) Take cells in good exponential growth phase, add 0.25% trypsin digestion solution, digest to make adherent cells fall off, count 1×10^5-4×10^5 cells/mL, and make cell suspension.
(§3) Cells were seeded into 96-well plates at 10,000 cells/well, and the UVB photodamage model was established when the cells reached about 80% confluent. […]
(§4) After 24 hours, add 22 μL of 5 mg/mL MTT to each well, place in an incubator and incubate for 4 hours, discard the original solution, and add 150 μL/well of DMSO. After 5 minutes, use a microplate reader to read the reference OD values at 490 nm and 630 nm wavelengths.
(§5) By establishing a UVB light-damaged cell model, administering 24 hours after ultraviolet light irradiation, and using the MTT method to detect cell proliferation activity, the ability of the peptide of the present invention to repair light-damaged cells was evaluated.

NIH3T3 cells = experiment: UVB light damage repair experiment (MTT), NIH3T3; format: cell-based, mouse; details: UVB irradiated, each dose of 12.5 ppm-100 ppm, 24 hours
Experimental: as §1, §2, §3, §4, §5

TNF-α = experiment: Anti-inflammatory repair experiment, LPS-stimulated RAW264.7 cells, ELISA TNF-α; format: cell-based, mouse
Source text: (§6) Mouse mononuclear macrophages (RAW264.7 cells).
(§7) Peptide (2), tested at a concentration of 100 ppm.
(§8) • a) Take RAW264.7 cells in good exponential growth phase, add 0.25% trypsin digestion solution, digest to make adherent cells fall off, count 1-4×10^6 cells/mL, and make cell suspension; • b) Appropriately dilute 100,000 cells/well of cell suspension and inoculate it on a 6-well plate, and establish an LPS-stimulated inflammation model when the cells reached about 80% confluent. Set blank control group (control), LPS group, dexamethasone group (DXM), polypeptide group. Add 1000 μL culture medium to the blank control group; add 200 ng/mL LPS to the LPS group, add culture medium to 1000 μL; add 200 ng/mL LPS and 50 ng/mL dexamethasone to the dexamethasone group, add culture medium to 1000 μL; add 200 ng/mL LPS and peptide (2) to the polypeptide group, add culture medium to 1000 μL (final test concentration of peptide is 100 ppm). […] The OD value of each well was sequentially measured at 450 nm with a microplate reader within 15 min after the reaction was terminated. […]

IL-6 = experiment: Anti-inflammatory repair experiment, LPS-stimulated RAW264.7 cells, ELISA IL-6; format: cell-based, mouse; details: 100 ppm, 200 ng/mL LPS, 48 h, vs LPS group
Source text: as §6, §7, §8

[3] = Stability of aqueous solutions (HPLC purity over time); format: physicochemical
Experimental: In Example 29, the HPLC chromatographic separation conditions were as follows: • Chromatographic column: Octadecyl bonded silica gel as filler 4.6*250 mm, 5 m • Mobile phase A: Acetonitrile (containing 0.09% trifluoroacetic acid) • Mobile phase B: 0.1% trifluoroacetic acid • Diluent: water • Flow rate: 1.0 ml/min; • Column temperature: 35° C.; • Detection wavelength: 215 nm; • Injection volume: 10 μl; • Running time: 32 min • Gradient elution table:
The test solution: Take an appropriate amount of this product and add water to dissolve and dilute to make a solution containing 1 mg per 1 ml.

## H-Ala-Pro-Phe-Arg-Met-Gly-Ile-Met-Thr-Thr-Asn-OH (H-APFRMGIMTTN-OH) [Peptide (2)]
HaCaT cells [1]; 12.5-100 ppm
  impact on the activity of HaCaT cells compared among peptides (1)-(5): greater impact on the activity of HaCaT cells
HaCaT cells [1]; 12.5 ppm-100 ppm, vs PBS blank control
  effect on the activity of HaCaT cells (MTT): could both improve the activity of HaCaT cells, promote their proliferation
HaCaT cells [2]
  effect on improving activity of photodamaged HaCaT cells compared among peptides (1)-(5): better effect on improving cell activity
NIH3T3 cells
  activity of photodamaged NIH3T3 cells (MTT): can significantly increase NIH3T3 cell activity
TNF-α; 100 ppm vs 50 ng/mL dexamethasone, TNF-α, IL-6 and IL-8
  anti-inflammatory effect compared with dexamethasone: equivalent to the positive drug dexamethasone
TNF-α; 100 ppm, 200 ng/mL LPS, 48 h, vs LPS group
  expression of TNF-α: significantly down-regulated
IL-6
  expression of IL-6: significantly down-regulated
[3]; Day 8 at room temperature
  aqueous solution (purity): 99.122%
[3]; Day 18 at room temperature
  aqueous solution (purity): 98.045%
[3]; Day 18 at room temperature, listed as peptide (2)
  aqueous solution (purity): did not change significantly
[3]; Solution, Day 0
  aqueous solution (purity): 99.291%
